Measurements: PubChem BioAssay AID324 (DTP/NCI, 2004)
Inconclusive results and toxic doses are left out. Rule for the calls: active = survival T/C of 150% or more; inactive = T/C below 125% in these data.

Tested on: CD2F1 mice, AMSA-resistant P388 leukemia ip, median survival T/C
Experiment: NCI In Vivo Anticancer Drug Screen. Data for tumor model P388 Leukemia resistant to AMSA; NSC 249992 (intraperitoneal) in CD2F1 (CDF1) mice
Settings: endpoint: median survival time, higher = longer survival
Description: The antitumor activity of compounds was measured in mice bearing transplantable tumors. Survival or tumor size were measured and the results are expressed as the measurement made in the treated group (T) divided by the measurement made in the vehicle treated control group (C). The tumor model used in this assay is P388 Leukemia resistant to AMSA; NSC 249992 (intraperitoneal) in CD2F1 (CDF1) mice

Measured: T/C

COc1cccc2c1C(=O)c1c(O)c3c(c(O)c1C2=O)C[C@@](O)(C(C)=O)C[C@@H]3OC1CC(N)C(O)C(C)O1 (some centres undefined)
inactive: dose: 0.64 mg/kg/injection, schedule: Q04DX003 (ip), vehicle: water 115 % of control | dose: 0.65 mg/kg/injection, schedule: Q04DX003 (ip), vehicle: saline 103 % of control | dose: 0.97 mg/kg/injection, schedule: Q04DX003 (ip), vehicle: saline 121 % of control | dose: 1.08 mg/kg/injection, schedule: Q04DX003 (ip), vehicle: saline 115 % of control | dose: 1.08 mg/kg/injection, schedule: Q04DX003 (ip), vehicle: water 118 % of control | dose: 1.62 mg/kg/injection, schedule: Q04DX003 (ip), vehicle: saline 123 % of control | dose: 1.8 mg/kg/injection, schedule: Q04DX003 (ip), vehicle: saline 124 % of control | dose: 3.0 mg/kg/injection, schedule: Q04DX003 (ip), vehicle: saline 117 % of control | dose: 3.0 mg/kg/injection, schedule: Q04DX003 (ip), vehicle: water 123 % of control | dose: 4.5 mg/kg/injection, schedule: Q04DX003 (ip), vehicle: saline 119 % of control | dose: 5.0 mg/kg/injection, schedule: Q04DX003 (ip), vehicle: water 123 % of control

O=C1c2ccccc2C(=O)c2c(NCCNCCO)ccc(NCCNCCO)c21
inactive: dose: 13.0 mg/kg/injection, schedule: Q04DX003 (ip), vehicle: saline 103 % of control | dose: 21.6 mg/kg/injection, schedule: Q04DX003 (ip), vehicle: saline 103 % of control | dose: 36.0 mg/kg/injection, schedule: Q04DX003 (ip), vehicle: saline 103 % of control | dose: 60.0 mg/kg/injection, schedule: Q04DX003 (ip), vehicle: saline 108 % of control | dose: 100.0 mg/kg/injection, schedule: Q04DX003 (ip), vehicle: saline 113 % of control

CC(=O)N(C)c1ccc(Nc2cc(C)[nH]c3ccc4ncnc4c23)cc1
inactive: dose: 19.4 mg/kg/injection, schedule: Q04DX002 (ip), vehicle: saline 101 % of control | dose: 20.7 mg/kg/injection, schedule: Q04DX002 (ip), vehicle: saline 104 % of control | dose: 32.4 mg/kg/injection, schedule: Q04DX002 (ip), vehicle: saline 100 % of control | dose: 34.6 mg/kg/injection, schedule: Q04DX002 (ip), vehicle: saline 112 % of control | dose: 54.0 mg/kg/injection, schedule: Q04DX002 (ip), vehicle: saline 119 % of control | dose: 57.6 mg/kg/injection, schedule: Q04DX002 (ip), vehicle: saline 117 % of control | dose: 90.0 mg/kg/injection, schedule: Q04DX002 (ip), vehicle: saline 113 % of control | dose: 96.0 mg/kg/injection, schedule: Q04DX002 (ip), vehicle: saline 109 % of control

CCN(CC)CCNc1ccc(C)c2sc3ccccc3c(=O)c12
inactive: dose: 16.2 mg/kg/injection, schedule: Q01DX005 (ip), vehicle: saline 101 % of control | dose: 19.4 mg/kg/injection, schedule: Q01DX005 (ip), vehicle: water 92 % of control | dose: 27.0 mg/kg/injection, schedule: Q01DX005 (ip), vehicle: saline 101 % of control | dose: 45.0 mg/kg/injection, schedule: Q01DX005 (ip), vehicle: saline 99 % of control | dose: 54.0 mg/kg/injection, schedule: Q01DX005 (ip), vehicle: water 90 % of control | dose: 75.0 mg/kg/injection, schedule: Q01DX005 (ip), vehicle: saline 94 % of control | dose: 90.0 mg/kg/injection, schedule: Q01DX005 (ip), vehicle: water 89 % of control | dose: 125.0 mg/kg/injection, schedule: Q01DX005 (ip), vehicle: saline 90 % of control

CCN(CC)CCNc1ccc(CO)c2sc3ccccc3c(=O)c12
inactive: dose: 10.36 mg/kg/injection, schedule: Q01DX005 (ip), vehicle: water 106 % of control | dose: 17.28 mg/kg/injection, schedule: Q01DX005 (ip), vehicle: water 117 % of control | dose: 28.8 mg/kg/injection, schedule: Q01DX005 (ip), vehicle: water 98 % of control | dose: 48.0 mg/kg/injection, schedule: Q01DX005 (ip), vehicle: water 97 % of control | dose: 80.0 mg/kg/injection, schedule: Q01DX005 (ip), vehicle: water 87 % of control

CCC1(O)CC2CN(CCc3c([nH]c4ccccc34)C(C(=O)OC)(c3cc4c(cc3OC)N(C)C3C(O)(C(N)=O)C(O)C5(CC)C=CCN6CCC43C65)C2)C1 (centres undefined) (tested in a mixture with another compound)
active: dose: 0.5 mg/kg/injection, schedule: Q04DX003 (ip), vehicle: clinical formulation 150 % of control | dose: 0.83 mg/kg/injection, schedule: Q04DX003 (ip), vehicle: clinical formulation 162 % of control

CC(=O)C1(O)Cc2c(O)c3c(c(O)c2C(OC2CC(N)C(O)C(C)O2)C1)C(=O)c1ccccc1C3=O (centres undefined)
inactive: dose: 0.13 mg/kg/injection, schedule: Q04DX003 (ip), vehicle: water 111 % of control | dose: 0.21 mg/kg/injection, schedule: Q04DX003 (ip), vehicle: water 122 % of control | dose: 0.36 mg/kg/injection, schedule: Q04DX003 (ip), vehicle: water 124 % of control | dose: 0.6 mg/kg/injection, schedule: Q04DX003 (ip), vehicle: water 105 % of control

CO[C@H](C(=O)[C@@H](O)[C@@H](C)O)[C@@H]1Cc2cc3cc(OC4CC(OC5CC(O)C(O)C(C)O5)C(O)C(C)O4)c(C)c(O)c3c(O)c2C(=O)[C@H]1OC1CC(OC2CC(OC3CC(C)(O)C(O)C(C)O3)C(O)C(C)O2)C(O)C(C)O1 (some centres undefined)
inactive: dose: 0.13 mg/kg/injection, schedule: Q01DX005 (ip), vehicle: saline 112 % of control | dose: 0.22 mg/kg/injection, schedule: Q01DX005 (ip), vehicle: saline 113 % of control | dose: 0.36 mg/kg/injection, schedule: Q01DX005 (ip), vehicle: saline 118 % of control

COc1cccc2c1C(=N)c1c(O)c3c(c(O)c1C2=O)C[C@@](O)(C(C)=O)C[C@@H]3OC1CC(N)C(O)C(C)O1 (some centres undefined)
inactive: dose: 1.94 mg/kg/injection, schedule: Q04DX003 (ip), vehicle: water 98 % of control | dose: 3.24 mg/kg/injection, schedule: Q04DX003 (ip), vehicle: water 98 % of control | dose: 5.4 mg/kg/injection, schedule: Q04DX003 (ip), vehicle: water 97 % of control | dose: 9.0 mg/kg/injection, schedule: Q04DX003 (ip), vehicle: water 100 % of control | dose: 15.0 mg/kg/injection, schedule: Q04DX003 (ip), vehicle: water 100 % of control

COc1cccc2c1C(=O)c1c(O)c3c(c(O)c1C2=O)C[C@@](O)(C(=O)CO)C[C@@H]3OC1CC([N+](C)(C)C)C(O)C(C)O1 (some centres undefined)
inactive: dose: 3.89 mg/kg/injection, schedule: Q04DX003 (ip), vehicle: water 103 % of control | dose: 6.48 mg/kg/injection, schedule: Q04DX003 (ip), vehicle: water 111 % of control | dose: 10.8 mg/kg/injection, schedule: Q04DX003 (ip), vehicle: water 107 % of control | dose: 18.0 mg/kg/injection, schedule: Q04DX003 (ip), vehicle: water 108 % of control | dose: 30.0 mg/kg/injection, schedule: Q04DX003 (ip), vehicle: water 100 % of control

COc1cc([C@@H]2c3cc4c(cc3[C@@H](OC3OC5COC(C)OC5C(O)C3O)[C@H]3COC(=O)[C@H]23)OCO4)cc(OC)c1O (some centres undefined)
inactive: dose: 6.24 mg/kg/injection, schedule: Q04DX003 (ip), vehicle: water 124 % of control | dose: 17.3 mg/kg/injection, schedule: Q04DX003 (ip), vehicle: water 118 % of control | dose: 18.0 mg/kg/injection, schedule: Q04DX003 (ip), vehicle: Klucel (hydroxypropylcellulose) (HPC) 103 % of control | dose: 27.0 mg/kg/injection, schedule: Q04DX003 (ip), vehicle: Klucel (hydroxypropylcellulose) (HPC) 91 % of control | dose: 48.0 mg/kg/injection, schedule: Q04DX003 (ip), vehicle: water 108 % of control | dose: 60.0 mg/kg/injection, schedule: Q04DX003 (ip), vehicle: Klucel (hydroxypropylcellulose) (HPC) 87 % of control
active: dose: 28.8 mg/kg/injection, schedule: Q04DX003 (ip), vehicle: clinical formulation 167 % of control | dose: 28.8 mg/kg/injection, schedule: Q04DX003 (ip), vehicle: water 162 % of control

COC(=O)C[C@](O)(CCCC(C)(C)O)C(=O)O[C@@H]1C(OC)=C[C@]23CCCN2CCc2cc4c(cc2[C@H]13)OCO4
active: dose: 1.8 mg/kg/injection, schedule: Q04DX003 (ip), vehicle: saline + alcohol 153 % of control | dose: 3.0 mg/kg/injection, schedule: Q04DX003 (ip), vehicle: saline + alcohol 163 % of control

NCCCCS(=O)(=O)Nc1ccc(Nc2c3ccccc3nc3cc([N+](=O)[O-])ccc23)cc1
inactive: dose: 38.9 mg/kg/injection, schedule: Q04DX003 (ip), vehicle: water 93 % of control | dose: 64.8 mg/kg/injection, schedule: Q04DX003 (ip), vehicle: water 93 % of control | dose: 108.0 mg/kg/injection, schedule: Q04DX003 (ip), vehicle: water 95 % of control
